Data from patent publication US20080139458A1, “Methods of Treatment For Injured or Diseased Joints” (priority 2004, published 2008).
Several values for one entry are separate records, joined by “and”; a condition that tells them apart may be missing. Identical values can stand only once. Like-named read-outs stand apart in the source and are kept apart here. Peptide text beside a SMILES is read from it. * marks the point of attachment. Cbz = O=C(OCc1ccccc1)*; CH2F = FC*

Legend:
[1] = system: pooled knee joint synovitis (KJS) synovial fluid (SF) aspirates supplemented with purified human lubricin; type: biochemical; details: for Change in coefficient of friction Δμ ± S.D.: 37° C., E-64 10 μM, Z-LLL-FMK 20 μM, PMSF 25 μM, EDTA 10 mM, Lubricin = no inhibitor; for Lubricating ability compared to controls without enzyme inhibitors: KJS SF at 24, 48, and 96 hours, P<0.001
Procedure: (§1) The boundary lubricating abilities of protease-treated human lubricin and BSF were measured using a friction apparatus as reported by Davis et al., J. Biomech. Eng. 101:185-192, 1979. Lubricant (200 μL) was applied between a bearing of latex and a ring of polished glass with a contact area of 1.59 cm^2. The latex was oscillated, under a pressure of 0.35×10^6 N/m^2, against the polished glass with an entraining velocity of 0.37 mm/sec. The bearing system was axially loaded within a gimbals system free to rotate around two perpendicular horizontal axes. The friction apparatus recorded displacements of the gimbals system around the vertical loading axis through a linear displacement voltage transducer, where the output was directly proportional to the frictional torque (F). A bearing load of 70 newtons (N) was related to the coefficient of friction (μ) via Amonton's law, F=μN.
(§2) The μ of the lubricant was recorded at room temperature and was preceded by a baseline measurement of μ with normal saline (NS). Lubrication was manifested by a reduction in μ by the lubricant relative to that of NS. Negative Δμ (−Δμ) values indicate lubrication whereas positive Δμ (+Δμ) indicate friction. Addition of 200 μL of lubricant was followed by bringing the bearing surfaces close enough so that the solution wet both surfaces. After 5 min for equilibration, the latex-coated bearing was brought to rest on the glass as it was oscillating. Voltage measurements were recorded at 1, 3, and 5 min. After 5 min, the surfaces were separated for 2 min and then brought back together for three additional 5 min session. The 3 and 5 min μ values of the last two 5 min session were recorded and averaged, and data were later combined with another duplicate experiment providing 8 distinct measurements of μ.
(§3) The SF aspirates from patients diagnosed with a Noyes criteria grade III or IV OA (n=60), with RA (n=20), or with KJS (n=23) were pooled in equal proportions. […] The lubricin-supplemented pooled OA, RA, and KJS SF aspirates were treated at 37° C. and sampled after 24, 48, and 96 hours. The friction analysis of the sampled SF was conducted as described above. Normal human SF was obtained from cartilage allograft donors and was utilized as a control.
(§4) The treatments were performed at 37° C., and SF was sampled at 24, 48, and 96 hours post-treatment. The in vitro friction assay of sampled SF was performed as described above.

[2] = system: pooled rheumatoid arthritis (RA) synovial fluid (SF) aspirates supplemented with purified human lubricin; type: biochemical; details: for Change in coefficient of friction Δμ ± S.D.: 37° C., E-64 10 μM, Z-LLL-FMK 20 μM, PMSF 25 μM, EDTA 10 mM, Lubricin = no inhibitor
Procedure: as §1, §2, §3, §4

[3] = at 24, 48, and 96 hours, P<0.001

Structure (SMILES)	Change in coefficient of friction Δμ ± S.D. ([1]; 0 hrs)	Change in coefficient of friction Δμ ± S.D. ([1]; 24 hrs)	Change in coefficient of friction Δμ ± S.D. ([1]; 48 hrs)	Change in coefficient of friction Δμ ± S.D. ([1]; 96 hrs)	Lubricating ability compared to controls without enzyme inhibitors [1]	average increase in Δμ ([1]; at 24 hours, KJS SF) [%]	average increase in Δμ ([1]; at 48 hours, KJS SF) [%]	average increase in Δμ ([1]; at 96 hours, KJS SF) [%]	Change in coefficient of friction Δμ ± S.D. ([2]; 0 hrs)	Change in coefficient of friction Δμ ± S.D. ([2]; 24 hrs)	Change in coefficient of friction Δμ ± S.D. ([2]; 48 hrs)	Change in coefficient of friction Δμ ± S.D. ([2]; 96 hrs)	Δμ compared to lubricin-supplemented pooled RA SF aspirates [2, 3]	average increase in Δμ ([2]; at 24 hours, RA SF) [%]	average increase in Δμ ([2]; at 48 hours, RA SF) [%]	average increase in Δμ ([2]; at 96 hours, RA SF) [%]	average increase in Δμ [1]	Δμ compared to lubricin-supplemented pooled KJS SF aspirates [1]	average increase in Δμ [2]	Δμ compared to lubricin-supplemented pooled RA SF aspirates [2]
CC(C)C[C@H](NC(=O)[C@H]1O[C@@H]1C(=O)O)C(=O)NCCCCN=C(N)N (relative stereo) [E-64, L-trans-epoxysuccinyl-leucyl-amido-(4-guanidino)-butane]	−0.059 ± 0.004	−0.042 ± 0.005	−0.039 ± 0.007	−0.034 ± 0.002	preserved lubricating ability	32.7	38.5	42.4	−0.060 ± 0.002	−0.053 ± 0.004	−0.024 ± 0.002	−0.014 ± 0.004	significant decrease in Δμ	11.7	60.0	76.7	–	–	–	–
O=C(O)CN(CCN(CC(=O)O)CC(=O)O)CC(=O)O [EDTA]	–	–	–	–	–	–	–	–	–	–	–	–	–	–	–	–	50.0% and 80.0% and 85.0%	significant (P<0.01) decrease in Δμ	90.0% and 88.3% and 128.3%	significant decrease in Δμ
O=S(=O)(F)Cc1ccccc1 [PMSF, phenylmethanesulfonyl fluoride]	−0.060 ± 0.001	−0.033 ± 0.006	−0.030 ± 0.005	−0.027 ± 0.005	preserved lubricating ability	45.0	50.0	55.0	−0.060 ± 0.002	−0.009 ± 0.009	−0.008 ± 0.004	−0.009 ± 0.001	significant decrease in Δμ	85.0	86.3	85.0	–	–	–	–
CC(C)C[C@H](NC(=O)[C@H](CC(C)C)NC(=O)[C@H](CC(C)C)NC(=O)OCc1ccccc1)C(=O)CF [Z-LLL-FMK, Z-Leu-Leu-Leu-fluoromethyl ketone] (Cbz-Leu-Leu-Leu-CH2F)	−0.060 ± 0.002	−0.035 ± 0.002	−0.031 ± 0.003	−0.028 ± 0.002	preserved lubricating ability	41.7	48.3	53.3	−0.060 ± 0.002	−0.049 ± 0.002	−0.019 ± 0.001	−0.005 ± 0.003	significant decrease in Δμ	18.3	68.3	91.7	–	–	–	–
